According to the Deep4Chem optical property database:
Values belong to the molecule of their own block, whether it stands above or below them.

Assay: solvent given as SMILES

Compound: CCOC(=O)/C(C#N)=C\c1cn(-c2ccccc2)nc1-c1ccccc1
absorption maximum (in C1CCOC1): 347 nm
absorption maximum (in C1COCCO1): 348 nm
absorption maximum (in CCO): 347 nm
absorption maximum (in CCOC(C)=O): 346 nm
absorption maximum (in CN(C)C=O): 347 nm
absorption maximum (in CO): 344 nm
absorption maximum (in CS(C)=O): 349 nm
absorption maximum (in Cc1ccccc1): 353 nm
absorption maximum (in ClC(Cl)Cl): 351 nm
absorption maximum (in ClCCl): 348 nm

Compound: O=c1c2ccccc2n2c3ccccc3c(=O)c3cccc1c32
absorption maximum (in Cc1ccccc1): 432.96 nm

Compound: CN(C)c1ccc2cc(C3=[O+][B-](F)(F)OC(c4ccc(C#N)cc4)=C3)ccc2c1
absorption maximum (in C1CCOC1): 525 nm
absorption maximum (in CC#N): 539 nm
absorption maximum (in CC(C)=O): 533 nm
absorption maximum (in CS(C)=O): 559 nm
absorption maximum (in Cc1ccccc1): 519 nm
absorption maximum (in ClC(Cl)Cl): 532 nm
absorption maximum (in ClCCl): 539 nm

Compound: O=S(=O)(c1ccc(-c2ccc(-n3c4ccccc4c4ccccc43)cc2)cc1)c1ccc(-c2ccc(-n3c4ccccc4c4ccccc43)cc2)cc1
absorption maximum (in Cc1ccccc1): 341 nm

Compound: CN1C2=Nc3n(C)c4ccccc4[n+]3CN2c2ccccc21
absorption maximum (in CO): 339 nm

Compound: N#CC(C#N)=Cc1ccc2nc(C#Cc3ccc(N(c4ccc(C#Cc5nc6ccc(C=C(C#N)C#N)cc6s5)cc4)c4ccc(C#Cc5nc6ccc(C=C(C#N)C#N)cc6s5)cc4)cc3)sc2c1
absorption maximum (in Cc1ccccc1): 440 nm

Compound: COC(=O)CN1C(=O)c2cc3ccc(N(C)C)cc3cc2C1=O
absorption maximum (in C1CCOC1): 373 nm
absorption maximum (in CC#N): 380 nm
absorption maximum (in CC(C)=O): 375 nm
absorption maximum (in CCO): 379 nm
absorption maximum (in Cc1ccccc1): 373 nm
absorption maximum (in ClC(Cl)Cl): 380 nm

Compound: CCn1c2ccccc2oc2c(C#N)c3oc4ccccc4oc3c(C#N)c21
absorption maximum (in ClC(Cl)Cl): 470 nm

Compound: CN(C)c1ccc(/C=C/c2ccc(-c3nnc(-c4ccc(-c5cc6ccccc6s5)cc4)o3)cc2)cc1
absorption maximum (in CC#N): 334 nm
absorption maximum (in CC(C)=O): 337 nm
absorption maximum (in CCCCCCCC): 334 nm
absorption maximum (in CCCCCCCCCCO): 344 nm
absorption maximum (in CCCCCCCCO): 343 nm
absorption maximum (in CCCCCO): 341 nm
absorption maximum (in CCCO): 341 nm
absorption maximum (in CN(C)C=O): 338 nm
absorption maximum (in CO): 335 nm
absorption maximum (in CS(C)=O): 340 nm

Compound: COc1ccc(N(c2ccc(/C=C(\C)c3ccccc3)cc2)c2ccc(OC)cc2)cc1
absorption maximum (in Cc1ccccc1): 347 nm

Compound: FC(F)(F)C(F)(F)C(F)(F)C1=NC2=C(Br)C=C3c4cc(Br)c5nc(C(F)(F)C(F)(F)C(F)(F)F)nc6c(Br)cc(c4c56)=C4C=C(Br)C(=N1)C2C34 (centres undefined)
absorption maximum (in C1CCOC1): 475 nm

Results, then the molecule that gave them:

absorption maximum (in CN(C)C=O): 668 nm
Compound: C[Si](C)(C)O[Si]1(O[Si](C)(C)C)n2c3c4ccccc4c2/N=C2N=C(/N=c4/c5ccccc5/c(n41)=N/C1=NC(=N\3)/c3ccccc31)c1ccccc1\2

absorption maximum (in C1CCCCC1): 302 nm
absorption maximum (in CC#N): 305 nm
absorption maximum (in CO): 301 nm
absorption maximum (in ClC(Cl)Cl): 308 nm
absorption maximum (in ClCCl): 385 nm
absorption maximum (in O): 305 nm
Compound: c1ccc(-c2nc(-c3ccccc3)n3ccccc23)cc1

absorption maximum (in C1CCOC1): 403 nm
Compound: CC1(C)c2cc(/C=C/c3nc(/C=C/c4ccc5c(c4)C(C)(C)c4cc(N(c6ccccc6)c6ccc7ccccc7c6)ccc4-5)nc(/C=C/c4ccc5c(c4)C(C)(C)c4cc(N(c6ccccc6)c6ccc7ccccc7c6)ccc4-5)n3)ccc2-c2ccc(N(c3ccccc3)c3ccc4ccccc4c3)cc21

absorption maximum (in CC#N): 344 nm
absorption maximum (in CCCCCCCCCCCCCCCC): 333 nm
absorption maximum (in CO): 353 nm
absorption maximum (in ClC(Cl)Cl): 341 nm
absorption maximum (in c1ccccc1): 339 nm
Compound: CC(C)(C)C1Nc2ccccc2C(=O)N1Cc1ccccc1 (centres undefined)

absorption maximum (in C1CCOC1): 342 nm
absorption maximum (in ClCCl): 342 nm
Compound: Cc1ccc(-c2ccc3ccc4cc(C(C)(C)C)cc5ccc2c3c45)cc1

absorption maximum (in ClCCl): 534 nm
Compound: CC1=C(I)C(C)=[N+]2C1=C(c1c(-c3ccccn3)nc3ccccn13)c1c(C)cc(C)n1[B-]2(F)F

absorption maximum (in ClCCl): 542 nm
Compound: CCCCCCOc1cc(C=C2C(=C(C#N)C#N)c3ccccc3C2=C(C#N)C#N)c(OCCCCCC)cc1C=C1C(=C(C#N)C#N)c2ccccc2C1=C(C#N)C#N

absorption maximum (in ClCCl): 512 nm
Compound: c1ccc(-[n+]2c3ccc4cccc5c6cccc7c8cccc9ccc2c(c98)c(c67)c3c45)cc1

absorption maximum (in ClC(Cl)Cl): 665 nm
Compound: CCCCCCCCCCOc1cc(OCCCCCCCCCC)cc(C2=C3C(C)=CC(/C=C/c4ccc(OC)cc4)=[N+]3[B-](F)(F)n3c(/C=C/c4ccc(OC)cc4)cc(C=Cc4ccc(OC)cc4)c32)c1

absorption maximum (in CO): 300 nm
Compound: COc1cccc(-c2nc(-c3ccccc3)c(-c3ccccc3)[nH]2)c1

absorption maximum (in ClCCl): 536 nm
Compound: COc1ccc2cc(-c3cc(-c4ccccc4)c4n3[B-](F)(F)[N+]3=C5C=NC=CN5[B-](F)(F)[N+]3=C4)ccc2c1

absorption maximum (in C1CCOC1): 597 nm
Compound: COc1ccc(C2=C(c3ccc(OC)cc3)C(c3ccc(OC)cc3)=[N+]3C2=C(c2ccc(OC)cc2)c2c(-c4ccc(OC)cc4)c(-c4ccc(OC)cc4)c(-c4ccc(OC)cc4)n2[B-]3(F)F)cc1

absorption maximum (in ClC(Cl)Cl): 419 nm
Compound: CCn1c2ccccc2c2cc3c(cc21)c1ccccc1n3CC

absorption maximum (in C1CCCCC1): 398 nm
Compound: N#Cc1c(-c2ccccc2)cc(N2c3ccccc3Oc3ccccc32)cc1-c1ccccc1
